Measured values reported in patent US20100267561A1, “HERBICIDAL PYRIDAZINONE DERIVATIVES” (priority 2007, published 2010).

Columns and labels:
Assay type in all cases: in vivo
[1] = test system: canarygrass (Phalaris minor); test: Test C pre-/postemergence plant response; settings: Preemergence
How it was run: (§1)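 Pre- and postemergence treatment, visual 0–100 rating vs controls at 15–25 days.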

[2] = test system: wild mustard (Sinapis arvensis); test: Test C pre-/postemergence plant response
How it was run: as §1

[3] = test system: windgrass (Apera spica-venti); test: Test C pre-/postemergence plant response
How it was run: as §1

[4] = test system: green foxtail (Setaria viridis); test: Test C pre-/postemergence plant response
How it was run: as §1

[5] = test system: annual bluegrass (Poa annua); test: Test C pre-/postemergence plant response
How it was run: as §1

[6] = test system: winter barley (Hordeum vulgare); test: Test C pre-/postemergence plant response
How it was run: as §1

[7] = test system: pigweed (Amaranthus retroflexus); test: Test C pre-/postemergence plant response
How it was run: as §1

[8] = test system: spring wheat (Triticum aestivum); test: Test C pre-/postemergence plant response
How it was run: as §1

wild oat (Avena fatua) = test: Test C pre-/postemergence plant response
How it was run: as §1

[9] = test system: winter wheat (Triticum aestivum); test: Test C pre-/postemergence plant response
How it was run: as §1

[10] = test system: downy bromegrass (Bromus tectorum); test: Test C pre-/postemergence plant response
How it was run: as §1

[11] = test system: spring barley (Hordeum vulgare); test: Test C pre-/postemergence plant response
How it was run: as §1

canola (Brassica rapa) = test: Test C pre-/postemergence plant response
How it was run: as §1

[12] = test system: blackgrass (Alopecurus myosuroides); test: Test C pre-/postemergence plant response
How it was run: as §1

[13] = test system: Italian ryegrass (Lolium multiflorum); test: Test C pre-/postemergence plant response
How it was run: as §1

[14] = test system: pigweed (Amaranthus retroflexus); test: Test A pre-/postemergence plant response
How it was run: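 Greenhouse pot test: loam–sand soil; pre- and postemergence sprays applied same day; post plants 2–10 cm, 1–2 leaves. Readout ~10 d, visual % injury vs untreated (0 = none, 100 = complete control).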

[15] = Postemergence, 8 g ai/ha, scale 0 to 100, 0 no effect, 100 complete control
[16] = Postemergence, 16 g ai/ha, scale 0 to 100, 0 no effect, 100 complete control
[17] = Postemergence, 31 g ai/ha, scale 0 to 100, 0 no effect, 100 complete control
[18] = Postemergence, 62 g ai/ha, scale 0 to 100, 0 no effect, 100 complete control
[19] = Preemergence, 8 g ai/ha, scale 0 to 100 (0 no effect, 100 complete control)
[20] = Preemergence, 16 g ai/ha, scale 0 to 100 (0 no effect, 100 complete control)
[21] = Preemergence, 31 g ai/ha, scale 0 to 100 (0 no effect, 100 complete control)
[22] = Preemergence, 62 g ai/ha, scale 0 to 100, 0 no effect, 100 complete control

With Cc1nn(C)c(=O)c(-n2nc(-c3ccc(Cl)cc3)cc2C)c1O [Compound 15] the “Plant response rating, Canarygrass” value ([1]; 8 g ai/ha, scale 0 to 100 (0 no effect, 100 complete control)) was 20, the “Plant response rating, Canarygrass” value ([1]; 16 g ai/ha, scale 0 to 100 (0 no effect, 100 complete control)) was 70 and the “Plant response rating, Canarygrass” value ([1]; 31 g ai/ha, scale 0 to 100 (0 no effect, 100 complete control)) was 80. The “Plant response rating, Canarygrass” value ([1]; 62 g ai/ha, scale 0 to 100, 0 no effect, 100 complete control) was 95, the “Plant response rating, Mustard, Wild” value [2, 15] was 0 and the “Plant response rating, Mustard, Wild” value [2, 16] was 0. For the same compound, the “Plant response rating, Mustard, Wild” value [2, 17] was 0, the “Plant response rating, Mustard, Wild” value [2, 18] was 20 and the “Plant response rating, Mustard, Wild” value [2, 19] was 0. The “Plant response rating, Mustard, Wild” value [2, 20] was 0, the “Plant response rating, Mustard, Wild” value [2, 21] was 0 and the “Plant response rating, Windgrass” value [3, 15] was 0. The “Plant response rating, Windgrass” value [3, 16] was 0, the “Plant response rating, Windgrass” value [3, 17] was 0 and the “Plant response rating, Windgrass” value [3, 18] was 40. The “Plant response rating, Windgrass” value [3, 20] was 25, the “Plant response rating, Windgrass” value [3, 21] was 75 and the “Plant response rating, Windgrass” value [3, 22] was 95. The “Plant response rating, Foxtail, Green” value [4, 15] was 90, the “Plant response rating, Foxtail, Green” value [4, 16] was 95 and the “Plant response rating, Foxtail, Green” value [4, 17] was 98. For the same compound, the “Plant response rating, Foxtail, Green” value [4, 18] was 98, the “Plant response rating, Foxtail, Green” value [4, 19] was 60 and the “Plant response rating, Foxtail, Green” value [4, 20] was 98. The “Plant response rating, Foxtail, Green” value [4, 21] was 100, the “Plant response rating, Foxtail, Green” value [4, 22] was 100 and the “Plant response rating, Bluegrass” value [5, 15] was 0. The “Plant response rating, Bluegrass” value [5, 16] was 25, the “Plant response rating, Bluegrass” value [5, 17] was 40 and the “Plant response rating, Bluegrass” value [5, 18] was 50. The “Plant response rating, Bluegrass” value [5, 19] was 40, the “Plant response rating, Bluegrass” value [5, 20] was 60 and the “Plant response rating, Bluegrass” value [5, 21] was 75. For the same compound, the “Plant response rating, Bluegrass” value [5, 22] was 90, the “Plant response rating, Barley, Winter” value [6, 15] was 0 and the “Plant response rating, Barley, Winter” value [6, 16] was 0. The “Plant response rating, Barley, Winter” value [6, 17] was 10, the “Plant response rating, Barley, Winter” value [6, 18] was 90 and the “Plant response rating, Barley, Winter” value [6, 19] was 0. The “Plant response rating, Barley, Winter” value [6, 20] was 20, the “Plant response rating, Barley, Winter” value [6, 21] was 50 and the “Plant response rating, Barley, Winter” value [6, 22] was 60. The “Plant response rating, Pigweed” value [7, 15] was 0, the “Plant response rating, Pigweed” value [7, 16] was 0 and the “Plant response rating, Pigweed” value [7, 17] was 0. For the same compound, the “Plant response rating, Pigweed” value [7, 18] was 0, the “Plant response rating, Pigweed” value [7, 19] was 0 and the “Plant response rating, Pigweed” value [7, 20] was 0. The “Plant response rating, Pigweed” value [7, 21] was 0, the “Plant response rating, Pigweed” value [7, 22] was 0 and the “Plant response rating, Wheat, Spring” value [8, 15] was 0. The “Plant response rating, Wheat, Spring” value [8, 16] was 0, the “Plant response rating, Wheat, Spring” value [8, 17] was 15 and the “Plant response rating, Wheat, Spring” value [8, 18] was 70. For the same compound, the “Plant response rating, Wheat, Spring” value [8, 19] was 0, the “Plant response rating, Wheat, Spring” value [8, 20] was 10 and the “Plant response rating, Wheat, Spring” value [8, 21] was 35. For the same compound, the “Plant response rating, Wheat, Spring” value [8, 22] was 70, the “Plant response rating, Oat, Wild” value (wild oat (Avena fatua); [15]) was 0 and the “Plant response rating, Oat, Wild” value (wild oat (Avena fatua); [16]) was 25. The “Plant response rating, Oat, Wild” value (wild oat (Avena fatua); [17]) was 90, the “Plant response rating, Oat, Wild” value (wild oat (Avena fatua); [18]) was 90 and the “Plant response rating, Oat, Wild” value (wild oat (Avena fatua); [19]) was 0. For the same compound, the “Plant response rating, Oat, Wild” value (wild oat (Avena fatua); [21]) was 50, the “Plant response rating, Oat, Wild” value (wild oat (Avena fatua); [22]) was 65 and the “Plant response rating, Wheat, Winter” value [9, 15] was 0. For the same compound, the “Plant response rating, Wheat, Winter” value [9, 16] was 0, the “Plant response rating, Wheat, Winter” value [9, 17] was 0 and the “Plant response rating, Wheat, Winter” value [9, 18] was 25. For the same compound, the “Plant response rating, Wheat, Winter” value [9, 19] was 0, the “Plant response rating, Wheat, Winter” value [9, 20] was 0 and the “Plant response rating, Wheat, Winter” value [9, 21] was 20. For the same compound, the “Plant response rating, Wheat, Winter” value [9, 22] was 25, the “Plant response rating, Bromegrass, Downy” value [10, 15] was 0 and the “Plant response rating, Bromegrass, Downy” value [10, 16] was 15. For the same compound, the “Plant response rating, Bromegrass, Downy” value [10, 17] was 20, the “Plant response rating, Bromegrass, Downy” value [10, 18] was 30 and the “Plant response rating, Bromegrass, Downy” value [10, 19] was 0. For the same compound, the “Plant response rating, Bromegrass, Downy” value [10, 20] was 20, the “Plant response rating, Bromegrass, Downy” value [10, 21] was 35 and the “Plant response rating, Bromegrass, Downy” value [10, 22] was 70. The “Plant response rating, Barley, Spring” value [11, 15] was 0, the “Plant response rating, Barley, Spring” value [11, 16] was 0 and the “Plant response rating, Barley, Spring” value [11, 17] was 0. The “Plant response rating, Barley, Spring” value [11, 18] was 50, the “Plant response rating, Barley, Spring” value [11, 19] was 0 and the “Plant response rating, Barley, Spring” value [11, 20] was 0. The “Plant response rating, Barley, Spring” value [11, 21] was 40, the “Plant response rating, Barley, Spring” value [11, 22] was 65 and the “Plant response rating, Canola” value (canola (Brassica rapa); [15]) was 0. The “Plant response rating, Canola” value (canola (Brassica rapa); [16]) was 0, the “Plant response rating, Canola” value (canola (Brassica rapa); [17]) was 0 and the “Plant response rating, Canola” value (canola (Brassica rapa); [18]) was 0. For the same compound, the “Plant response rating, Canola” value (canola (Brassica rapa); [19]) was 0, the “Plant response rating, Canola” value (canola (Brassica rapa); [20]) was 0 and the “Plant response rating, Canola” value (canola (Brassica rapa); [21]) was 0. The “Plant response rating, Canola” value (canola (Brassica rapa); [22]) was 0, the “Plant response rating, Blackgrass” value [12, 15] was 75 and the “Plant response rating, Blackgrass” value [12, 16] was 95. For the same compound, the “Plant response rating, Blackgrass” value [12, 17] was 98, the “Plant response rating, Blackgrass” value [12, 18] was 100 and the “Plant response rating, Blackgrass” value [12, 19] was 70. The “Plant response rating, Blackgrass” value [12, 20] was 80, the “Plant response rating, Blackgrass” value [12, 21] was 95 and the “Plant response rating, Blackgrass” value [12, 22] was 98. For the same compound, the “Plant response rating, Ryegrass, Italian” value [13, 15] was 50, the “Plant response rating, Ryegrass, Italian” value [13, 16] was 100 and the “Plant response rating, Ryegrass, Italian” value [13, 17] was 100. The “Plant response rating, Ryegrass, Italian” value [13, 18] was 100, the “Plant response rating, Ryegrass, Italian” value [13, 19] was 15 and the “Plant response rating, Ryegrass, Italian” value [13, 20] was 100. The “Plant response rating, Ryegrass, Italian” value [13, 21] was 100, the “Plant response rating, Ryegrass, Italian” value [13, 22] was 100 and the “Plant response rating, Pigweed” value ([14]; Postemergence, 125 g ai/ha, 0 to 100 scale, 0 no effect, 100 complete control) was 0. The “Plant response rating, Pigweed” value ([14]; Postemergence, 500 g ai/ha, 0 to 100 scale, 0 no effect, 100 complete control) was 0, the “Plant response rating, Pigweed” value ([14]; Preemergence, 125 g ai/ha, 0 to 100 scale (0 no effect, 100 complete control)) was 0 and the “Plant response rating, Pigweed” value ([14]; Preemergence, 500 g ai/ha, 0 to 100 scale (0 no effect, 100 complete control)) was 0.
